Laboratory results published in article PMC6609550, “Blockade of the forward Na^+/Ca^2+ exchanger suppresses the growth of glioblastoma cells through Ca^2+‐mediated cell death” (British Journal of Pharmacology, 2019).

Tests used:
Assay type in all cases: cell-based, Human
[1] = tested on: p38‐MAPK; assay: Western blot of phosphorylated and total p38-MAPK in U87 cells; conditions: 25 μM, 10, 30, 60 and 90 min
Method: (§1) After treatment with bepridil for 0, 30, 60, and 90 min, cells were collected and lysed in RIPA buffer (Beyotime, Nanjing, China) supplemented with protease inhibitor (Beyotime). The total protein concentration of each sample was determined using the BCA Protein Assay Kit (Sangon Biotech, Shanghai, China). Equal protein extracts (45‐μg protein per lane) were separated by SDS‐PAGE and electrophoretically transferred to PVDF membranes (Millipore, Bedford, MA, USA). Then, the membranes were incubated with anti‐phosphorylated and total http://www.guidetopharmacology.org/GRAC/FamilyDisplayForward?familyId=514, http://www.guidetopharmacology.org/GRAC/FamilyDisplayForward?familyId=518, and http://www.guidetopharmacology.org/GRAC/FamilyDisplayForward?familyId=519 antibodies (1:1,000; Cell Signaling Technology) at 4°C overnight, followed by incubation with IRDye 680LT fluorescent secondary antibody (LI‐COR Biosciences, Lincoln, NE, USA). Proteins were visualized using the Odyssey Fc Imaging System (LI‐COR Biosciences, Lincoln, NE, USA). Mouse α‐tubulin antibody was used as protein loading controls. The immuno‐related procedures used comply with the recommendations made by the British Journal of Pharmacology (Alexander et al., 2018).

[2] = tested on: forward NCX; assay: Whole-cell patch-clamp recording of forward-mode NCX currents in U87 cells; conditions: forward NCX current measured at −110 mV, mean ± SEM, n = 4, read-out: IC50, blocking forward NCX (currents)
Method: Whole‐cell patch‐clamp recording was performed using a Multiclamp 700B amplifier (Molecular Devices, Foster City, CA, USA) at room temperature. Voltage protocols were provided and current recorded via a DigiData‐1550B interface (Molecular Devices) controlled by pClamp 10 Software (Molecular Devices, RRID:SCR_011323). […] Internal solution consisted of (in mM): 120 CsCl, 20 NaCl, 2 MgCl2, 13 CaCl2, 2 Na2ATP, 20 BAPTA, and 10 HEPES at a pH 7.2. […] Series resistance was compensated by 75–85%. Linear leak and residual capacitance currents were subtracted online using a P/4 protocol of the pClamp 10. For the recording of the membrane currents related to the NCX, cells were held at −50 mV and depolarized to +60 mV, and then a voltage ramp starting from +60 to −120 mV was applied for 1,000 ms before returning back to −50 mV. The reverse and forward NCX currents were measured at +50 and −110 mV holding potentials respectively (Molinaro et al., 2008; Rahman, Inman, Kiss, & Janssen, 2012; Song, Chen, & Yu, 2014). Data were filtered at 3 KHz and digitized at sampling rates of 20 KHz. For drug application, cells were perfused with a VC‐6 Six Channel Perfusion Valve Control Systems (Warner Instruments, Greenwich, CT, USA) connected to a gravity‐fed perfusion systems.
Data are expressed as mean ± SEM and analysed by Prism 7 software, La Jolla, CA (GraphPad Prism, RRID:SCR_002798). The data and statistical analysis comply with the recommendations of the British Journal of Pharmacology on experimental design and analysis in pharmacology. Concentrations of the NCX blockers (IC50) exerting half‐maximal inhibition of NCX currents were obtained by fitting the concentration–response with the equation: I/I0*100%=Bottom+Top−Bottom/1+10^((^Log^IC50−C)*n) , where I 0 and I are current amplitudes measured in control and in the presence of NCX blockers, C is the logarithm of concentration, and n is the Hill coefficient. The statistical difference between two independent groups was analysed by Student's parametric unpaired t test. And the original data of more than two groups were assessed by the parametric one‐way ANOVA followed by a Tukey's post hoc test. The data for cell viability and Western blot were usually normalized to the control group, and were thus analysed by the non‐parametric Kruskal–Wallis test followed by a Dunn's post hoc test. Differences were considered to be significant when P < .05. Post hoc tests were conducted when the F value achieved the necessary level (P < .05) and there was no significant variance inhomogeneity.
We characterized the membrane currents associated with NCX activity in glioblastoma cells using whole‐cell patch‐clamp recording. […] The NCX current in its reverse mode (Ca^2+ entry) was measured at +50, and the forward‐mode current (Ca^2+ exit) was measured at −110 mV. The Ni^2+ (10 mM) was employed to inhibit and identify the NCX currents in its either reverse or forward mode as previously reported (Maack, Ganesan, Sidor, & O'Rourke, 2005).

[3] = Cell viability assay (Cell Counting Kit-8), ranges given for U87 and U251 together; conditions: human, U87 and U251 cells, read-out: Cell viability, % of control level
Method: (§2) Cell viability was determined by using a Cell Counting Kit‐8 (Dojindo, Japan). Briefly, cells were harvested from flasks and plated in 96‐well cell culture plates at 5 × 10^3 per well and cultured overnight. Cells were treated with test reagents for 72 hr. Control cells were treated with cell culture medium and measured at the same time point as treatment groups. CCK‐8 solution (10 μl) was added to each well of the 96‐well plates, and the cultures were incubated for 30 min at 37°C. Absorbance at 450 nm was measured using an automatic microplate reader (Molecular Devices, San Jose, CA, USA).

[4] = tested on: ERK; assay: Western blot of phosphorylated and total ERK in U87 cells; conditions: 25 μM, 10, 30, 60 and 90 min
Method: as §1, with “The” for “After treatment with bepridil for 0, 30, 60, and 90 min, cells were collected and lysed in RIPA buffer (Beyotime, Nanjing, China) supplemented with protease inhibitor (Beyotime). The”

[5] = tested on: U87 and U251 cells; assay: Cell viability assay (Cell Counting Kit-8), ranges given for U87 and U251 together; conditions: 72 hr
Method: as §2

SMILES	Effect on p38-MAPK activity [1]	IC50 [2] [µM]	viability at 72 h, 20 µM ([3]; 20 μM) [%]	viability at 72 h, 50 µM ([3]; 50 μM) [%]	viability at 72 h, 100 µM ([3]; 100 μM) [%]	Effect on ERK activity [4]	Cell viability, % of control level ([5]; 20 μM)	Cell viability, % of control level ([5]; 50 μM)	Cell viability, % of control level ([5]; 100 μM)
CC(C)COCC(CN(Cc1ccccc1)c1ccccc1)N1CCCC1 (stereo not shown) [Bepridil, N‐benzyl‐N‐(3‐isobutoxy‐2‐pyrrolidin‐1‐yl‐propyl)aniline]	activated	19.1 ± 1.2	30 to 40	6 to 7	3 to 4	not affected	–	–	–
CS(=O)(=O)O.N=C(N)SCCc1ccc(OCc2ccc([N+](=O)[O-])cc2)cc1 [KB‐R7943, 2‐[4‐[(4‐nitrophenyl)methoxy]phenyl]ethyl ester carbamimidothioic acid methanesulfonate]	–	32.3 ± 1.3	–	–	–	–	50–60%	7–18%	2–3%
